One block for each compound: values may come before it. Active and inactive are the calls of the source.
Legend:
Paired box protein Pax-8 = Paired box protein Pax-8 (Homo sapiens, UniProt Q06710); test: inhibitors of PAX8-driven TPO luciferase reporter, dose response, RMG-I cells, cherry-pick (AID 687027); type: functional, cell-based;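 also: luciferase reporter driven by Pax8 target thyroperoxidase promoter measured by SteadyGlo luminescence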
[1] = non-specific cell cytotoxicity, dose response, cytotoxicity control for PAX8 inhibitor project, plate reader, dry powder samples (AID 743021); type: functional, cell-based
[2] = molecular target: T1, Heat shock factor protein 1 (Mus musculus, UniProt P38532); test: HSF1 potentiators in luciferase reporter cells, confirmation, cell-based, NIH3T3, luminescence, dose retest (AID 435004); type: functional;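 also: stress induced by proteasome inhibitor MG132 added 30 min after compound; luciferase reporter driven by HSF1 response element in NIH3T3 cells; actives raise luminescence as potentiators of the MG132 stress response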
T1 sequence (P38532 whole entry): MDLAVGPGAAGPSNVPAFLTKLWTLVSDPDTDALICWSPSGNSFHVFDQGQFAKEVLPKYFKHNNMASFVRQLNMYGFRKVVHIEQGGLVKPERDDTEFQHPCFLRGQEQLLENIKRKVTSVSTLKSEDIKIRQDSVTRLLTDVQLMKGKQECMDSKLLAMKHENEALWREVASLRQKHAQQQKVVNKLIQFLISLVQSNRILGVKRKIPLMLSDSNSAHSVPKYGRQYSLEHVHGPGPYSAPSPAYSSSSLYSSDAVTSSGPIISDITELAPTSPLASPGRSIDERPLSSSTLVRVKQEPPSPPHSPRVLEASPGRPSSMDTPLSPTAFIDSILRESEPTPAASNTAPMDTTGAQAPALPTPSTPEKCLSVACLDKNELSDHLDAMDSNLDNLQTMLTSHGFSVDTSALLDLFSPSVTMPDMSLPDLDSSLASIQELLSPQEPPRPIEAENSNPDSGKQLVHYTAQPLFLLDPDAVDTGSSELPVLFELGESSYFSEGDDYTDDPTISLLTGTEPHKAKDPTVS

[3] = molecular target: Disintegrin and metalloproteinase domain-containing protein 17 (Homo sapiens, UniProt P78536); test: exosite inhibitors of ADAM17, dose response, biochemical (AID 743260)
Sequence of Disintegrin and metalloproteinase domain-containing protein 17 (P78536 whole entry, the tested form may be a part): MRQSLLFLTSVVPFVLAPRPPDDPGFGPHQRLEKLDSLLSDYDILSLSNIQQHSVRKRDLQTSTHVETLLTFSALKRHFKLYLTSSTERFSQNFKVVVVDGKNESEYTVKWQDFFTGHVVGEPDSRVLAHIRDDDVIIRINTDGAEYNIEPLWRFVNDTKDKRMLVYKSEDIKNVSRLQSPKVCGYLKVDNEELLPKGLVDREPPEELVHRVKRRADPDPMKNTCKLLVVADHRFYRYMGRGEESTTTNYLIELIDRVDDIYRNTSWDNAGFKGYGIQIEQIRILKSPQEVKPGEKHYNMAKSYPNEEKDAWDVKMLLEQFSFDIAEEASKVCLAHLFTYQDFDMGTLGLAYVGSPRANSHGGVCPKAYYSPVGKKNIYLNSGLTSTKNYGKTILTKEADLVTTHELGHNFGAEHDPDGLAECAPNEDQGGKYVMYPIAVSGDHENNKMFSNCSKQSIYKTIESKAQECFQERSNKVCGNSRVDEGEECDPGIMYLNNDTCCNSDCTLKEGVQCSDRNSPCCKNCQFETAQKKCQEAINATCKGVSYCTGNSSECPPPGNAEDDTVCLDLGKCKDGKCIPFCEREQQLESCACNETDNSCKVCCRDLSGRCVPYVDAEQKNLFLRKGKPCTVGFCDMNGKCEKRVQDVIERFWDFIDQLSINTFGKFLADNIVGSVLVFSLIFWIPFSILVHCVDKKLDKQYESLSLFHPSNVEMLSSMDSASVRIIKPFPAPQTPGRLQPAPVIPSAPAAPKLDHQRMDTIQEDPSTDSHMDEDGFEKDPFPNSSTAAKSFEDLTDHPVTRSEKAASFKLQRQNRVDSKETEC

[4] = HEK293T cytotoxicity, dose response, cytotoxicity control for miR-122 modulator project, cell-based, inhibitor set, cherry-pick, set 2 (AID 720697); type: functional
[5] = intracellular Trypanosoma cruzi inhibitors in host cells – cell-based, plate reader, cherry-pick samples, set 3, dose response (AID 651818); type: functional;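 also: compounds incubated with infected cells for about four days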
[6] = NIH:OVCAR-3 ovarian cancer cell cytotoxicity, dose response, PAX8 inhibitor project, plate reader, dry powder samples (AID 743044); type: functional, cell-based
[7] = IGROV1 ovarian cancer cell cytotoxicity, dose response, PAX8 inhibitor project, plate reader, dry powder samples (AID 743043); type: functional, cell-based; details: IGROV-1
[8] = cytotoxicity in OVCAR8 ovarian cancer cells, dose response, PAX8 project, cell-based, plate reader, dry powder samples (AID 743197); type: functional; details: OVCAR-8
Aminopeptidase N = molecular target: T2, Aminopeptidase N (Plasmodium falciparum FcB1/Columbia, UniProt O96935); test: P. falciparum M1AAP inhibitors, biochemical, fluorogenic H-Leu-NHMec substrate, 1536-well (AID 1445); design: species or system Plasmodium falciparum 3D7, 3D7
T2 sequence (O96935 whole entry): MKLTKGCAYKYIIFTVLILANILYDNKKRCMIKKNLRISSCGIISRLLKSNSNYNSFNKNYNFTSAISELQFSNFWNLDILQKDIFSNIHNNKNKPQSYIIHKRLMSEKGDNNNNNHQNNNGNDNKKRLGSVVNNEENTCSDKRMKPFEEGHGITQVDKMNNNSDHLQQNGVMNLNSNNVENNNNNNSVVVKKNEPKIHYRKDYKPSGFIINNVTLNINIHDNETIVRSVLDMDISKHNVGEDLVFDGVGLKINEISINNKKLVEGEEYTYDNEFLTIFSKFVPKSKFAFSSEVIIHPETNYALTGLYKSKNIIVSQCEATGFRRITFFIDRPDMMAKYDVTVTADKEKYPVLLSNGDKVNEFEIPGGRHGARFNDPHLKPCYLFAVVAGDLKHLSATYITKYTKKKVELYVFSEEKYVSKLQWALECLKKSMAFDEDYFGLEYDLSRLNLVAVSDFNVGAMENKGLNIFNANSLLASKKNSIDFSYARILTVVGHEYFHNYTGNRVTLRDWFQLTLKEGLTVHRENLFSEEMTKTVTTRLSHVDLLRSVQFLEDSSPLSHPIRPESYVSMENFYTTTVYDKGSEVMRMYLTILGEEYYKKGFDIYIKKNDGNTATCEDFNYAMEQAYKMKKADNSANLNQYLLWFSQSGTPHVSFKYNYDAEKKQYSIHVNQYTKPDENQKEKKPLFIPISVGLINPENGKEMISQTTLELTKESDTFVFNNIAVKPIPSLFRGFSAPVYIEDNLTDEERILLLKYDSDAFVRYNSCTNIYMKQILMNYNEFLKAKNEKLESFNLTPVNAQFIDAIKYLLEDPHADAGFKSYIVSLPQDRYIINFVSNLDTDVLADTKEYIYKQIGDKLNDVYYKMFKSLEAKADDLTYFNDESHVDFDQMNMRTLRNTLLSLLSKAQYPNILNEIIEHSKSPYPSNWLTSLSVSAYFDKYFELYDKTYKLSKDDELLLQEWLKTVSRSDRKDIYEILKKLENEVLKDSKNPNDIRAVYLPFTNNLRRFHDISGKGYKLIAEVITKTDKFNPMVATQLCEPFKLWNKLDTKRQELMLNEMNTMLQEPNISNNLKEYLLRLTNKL

Kallikrein-7 = Kallikrein-7 (Homo sapiens, UniProt P49862); test: Fluorescence Intensity-based biochemical primary high throughput dose response assay to identify activators of kallikrein-7 (K7) zymogen.
Sequence of Kallikrein-7 (P49862 whole entry): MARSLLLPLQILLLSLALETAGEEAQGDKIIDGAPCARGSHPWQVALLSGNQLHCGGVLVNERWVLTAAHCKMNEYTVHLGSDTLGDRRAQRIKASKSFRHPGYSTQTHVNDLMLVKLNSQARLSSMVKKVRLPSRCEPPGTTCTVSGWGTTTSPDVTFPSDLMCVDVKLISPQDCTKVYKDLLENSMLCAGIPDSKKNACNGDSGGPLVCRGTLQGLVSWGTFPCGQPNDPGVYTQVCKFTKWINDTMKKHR

[9] = T. cruzi growth inhibition in host cells, dose response, cell-based, plate reader, dry powder, set 2 (AID 652275); type: functional
H9c2 = test: cells; type: functional, cell-based; details: Rattus norvegicus, H9c2, Myocardium;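 also: confirmatory concentration-response retest of ultra-high-throughput screening hits for modulation of myocardial damage; cell death induced by hydrogen peroxide oxidative stress; compound pretreatment for 60 min then peroxide exposure for 2 h; potency is for protecting the cells against peroxide damage rather than for killing them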
Galanin receptor type 3 = Galanin receptor type 3 (Homo sapiens, UniProt O60755); test: Fluorescence-based cell-based primary high throughput dose response assay to identify antagonists of the Galanin Receptor 3 (GalR3).; type: functional
Sequence of Galanin receptor type 3 (O60755 whole entry): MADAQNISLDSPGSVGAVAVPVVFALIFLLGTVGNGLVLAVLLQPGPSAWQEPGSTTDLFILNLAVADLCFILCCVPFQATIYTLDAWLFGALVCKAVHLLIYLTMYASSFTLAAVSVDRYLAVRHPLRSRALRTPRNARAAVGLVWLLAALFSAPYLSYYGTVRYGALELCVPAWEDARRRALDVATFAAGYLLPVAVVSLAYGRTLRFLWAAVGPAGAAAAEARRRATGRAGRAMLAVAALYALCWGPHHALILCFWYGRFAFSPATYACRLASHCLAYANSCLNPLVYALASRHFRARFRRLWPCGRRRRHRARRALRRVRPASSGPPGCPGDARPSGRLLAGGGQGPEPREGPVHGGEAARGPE

cells = type: functional, cell-based; details: HEK-CNG
[10] = ADAM10 inhibitors, peptide cleavage, dose response, biochemical, QFRET (AID 743254);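 also: ADAM10 enzyme with the DM2 quenched FRET peptide as substrate; EDANS fluorescence gain as the protease cuts the substrate; inhibitor potency against ADAM10 proteolytic activity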

Sequence of Paired box protein Pax-8 (Q06710 whole entry): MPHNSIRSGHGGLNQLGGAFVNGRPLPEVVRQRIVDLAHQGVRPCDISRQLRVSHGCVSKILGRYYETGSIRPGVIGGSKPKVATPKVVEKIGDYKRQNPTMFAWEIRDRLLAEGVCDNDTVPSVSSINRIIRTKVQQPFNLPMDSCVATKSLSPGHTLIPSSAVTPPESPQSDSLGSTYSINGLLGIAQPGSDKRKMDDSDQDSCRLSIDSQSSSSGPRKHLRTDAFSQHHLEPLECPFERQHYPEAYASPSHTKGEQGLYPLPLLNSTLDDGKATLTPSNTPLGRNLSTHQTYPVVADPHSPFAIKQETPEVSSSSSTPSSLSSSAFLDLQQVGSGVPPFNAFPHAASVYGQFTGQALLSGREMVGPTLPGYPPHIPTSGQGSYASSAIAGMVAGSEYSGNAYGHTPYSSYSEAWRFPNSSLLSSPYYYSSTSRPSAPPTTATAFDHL

SMILES: C[C@@H]1CN([C@@H](C)CO)C(=O)Cc2cc(NC(=O)Cc3ccccc3)ccc2O[C@H]1CN(C)Cc1ccc(-c2ccccc2)cc1
AC50 (Paired box protein Pax-8): 9.31 µM (active)
AC50 [1]: 45.7 µM (active)

EC50 [2]: 101 µM (active)
IC50 [3]: > 69.5 µM (inactive)
SMILES: COc1cc(-c2nc(-c3ccccc3)c(-c3ccc4c(c3)-c3ccccc3S4(=O)=O)[nH]2)cc(OC)c1O

SMILES: CCC(=O)N1[C@H](CO)[C@@H](c2ccccc2)[C@@H]1CN(C(C)C)S(C)(=O)=O
AC50 [4]: 0.51 µM (active)

SMILES: C[C@@H]1CN([C@@H](C)CO)C(=O)c2cc(NC(=O)Nc3ccc(C(F)(F)F)cc3)ccc2O[C@H]1CN(C)C(=O)Nc1ccc(C(F)(F)F)cc1
AC50 [5]: 3.41 µM (active)
AC50 (Paired box protein Pax-8): 5.97 µM (active)
AC50 [6]: 42.1 µM (active)
AC50 [7]: 52.1 µM (active)
AC50 [8]: 61.2 µM (active)

IC50 (Aminopeptidase N): 61 µM (active)
EC50 (Kallikrein-7): > 69.5 µM (inactive)
SMILES: CCN(CC)CCCNc1oc(/C=C/c2ccccc2)nc1C#N

SMILES: C[C@H]1CN([C@@H](C)CO)C(=O)c2cccc(NC(=O)c3ccncc3)c2O[C@@H]1CN(C)Cc1cc(Cl)cc(Cl)c1
AC50 [9]: 10.5 nM (active)

SMILES: Cc1noc(C)c1Cn1nc(C(=O)O)c2ccccc2c1=O
IC50 (H9c2): 18.6 µM (active)
IC50 (Galanin receptor type 3): > 29.9 µM (inactive)
EC50 (cells): > 29.9 µM (inactive)

IC50 [10]: > 69.5 µM (inactive)
SMILES: CC(C)C[C@H](NC(=O)c1[nH]cnc1C(=O)Nc1ccc(CNC(=O)OC(C)(C)C)cc1)C(=O)OC(C)(C)C

SMILES: CC(=O)Nc1ccc(-c2cc(-c3ccc(NC(C)=O)cc3)nc(-c3ccc(NC(C)=O)cc3)n2)cc1
AC50 [4]: 8.27 µM (active)
